Here are results for one compound from US7915050B2, “Regulatory genes for plant differentiation and growth, and use of the same” (National University Corporation Nagoya University, priority 2005, dated 2011).

This assay deals with T1, AtGID1a (Arabidopsis thaliana, UniProt Q9MAA7).
T1 construct: made in house; host or cells: E. coli
T1 sequence (Q9MAA7 1-345): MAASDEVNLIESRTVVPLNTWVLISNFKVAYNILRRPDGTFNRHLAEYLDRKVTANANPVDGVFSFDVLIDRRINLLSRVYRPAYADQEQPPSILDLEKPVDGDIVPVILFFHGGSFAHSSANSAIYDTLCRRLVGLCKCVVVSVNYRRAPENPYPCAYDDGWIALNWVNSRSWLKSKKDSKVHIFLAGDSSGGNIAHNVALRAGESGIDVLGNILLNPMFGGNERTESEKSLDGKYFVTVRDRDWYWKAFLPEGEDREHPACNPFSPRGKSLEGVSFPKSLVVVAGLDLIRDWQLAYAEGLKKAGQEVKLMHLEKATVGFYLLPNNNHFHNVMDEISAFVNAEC
Nature of the assay: Competitive ability of GA in AtGID1-GA binding (AtGID1a). Here is the method:
In the gibberellin-binding assay, [1,2,16,17-^3H4]16,17-dihydro-GA4 was used as a labeled GA4. In vitro GA-binding assays were carried out using previous methods with some modifications (Nakajima, M. et al., Biochem. Biophys. Res. Comm. 241, 782-786 (1997)). The purified recombinant GID1 protein (400 pmol) was dissolved in 300 μl of binding buffer [20 mM Tris-HCl (pH 7.6), 5 mM 2-mercaptoethanol, and 0.1 M NaCl], and incubated with 100 μl of ^3H4-16,17-dihydroGA4 (6 pmol) for two hours at 25° C., either in the absence of non-labeled GA4 (total binding) or in the presence of 833-fold excess non-labeled GA4 (total non-specific binding). Then, 0.1 ml of the reaction mixture was loaded onto a NAP-5 column (Amersham Biosciences, Piscataway, N.J.). The eluate of the binding buffer (0.6 ml) was discarded, the subsequent eluate (0.2 ml) was collected, and the radioactivity was measured. The specific binding activity, reflecting the number of displaceable GA binding sites, was calculated by subtracting the amount of nonspecific binding from the amount of total binding. The same as above can also be carried out for other GAs.
Specifically, the coding region of the AtGID1 gene was amplified by PCR using specific primers designed based on the full-length cDNA sequence of the AtGID1 gene and having appropriate restriction sites at each end. After confirmation by sequence analysis, each cDNA fragment was ligated into pET32a vector (Novagen/Merck Biosciences, Madison, Wis., USA) or pGEX-4T-2 vector (Amersham Biosciences, Piscataway, N.J., USA; currently, a part of GE Healthcare). The production of recombinant proteins was confirmed by SDS-PAGE; vector cassettes were used as negative controls. GA binding assays were carried out similarly as described above using [1,2,16,17-^3H4]-16,17-dihydro-GA4 (4.55 TBq/mmol), which was custom-made by DuPont/NEN (Boston, Mass., USA). Non-labeled GA4 (1.25 mM) was used to measure non-specific binding. Saturation experiments for the kinetic analysis were carried out using ten concentrations of 16,17-dihydro-GA4 within the range of 25 to 1,500 nM. Competition assays were performed using [1,2,16,17-^3H4]-16,17-dihydro-GA4 at 15 nM and five concentrations of the non-labeled competitor. Recombinant RGA and GAI proteins were prepared using pET32a by a previously described method.
The ligand selectivity of each AtGID1 was examined by observing the competitive inhibition, by the addition of GA to the assay mixtures, of the binding between the recombinant proteins and tritiated 16,17-dihydro-GA4 (Table 2). The ligand selectivity was evaluated using the concentration of GA that inhibits 50% of the tracer (15 nM) binding (IC50 value).

Regarding `CC1C[C@]23C[C@H]1CCC2[C@]12CC[C@H](O)[C@](C)(C(=O)O1)[C@H]2[C@@H]3C(=O)O` (some centres unmarked) [H2-GA4, 16,17-dihydro-GA4], the “relative value, taking the value for GA4 as 100” value is reported as “(8) %”. Where the note is “tracer 15 nM, mean of at least two measurements”, the half-maximal inhibitory concentration (IC50) is 4 µM.
